Reference: patent US5770623A, “Argine antagonists for inhibition of systemic hypotension associated with nitric oxide production or endothelial derived relaxing factor” (Board of Regents, The University of Texas System, priority 1995, dated 1998)
“Also recorded” adds a separate entry of the source.

How the values were obtained:
endotoxemic dogs = assay: Endotoxin-induced hypotension in dogs (Example 5); format: in vivo, dog
Experimental: Administration of ET to dogs was clearly more toxic and less predictable than TNF administration. […] Within 1.5 minutes the blood pressure increased by 33±2.5 mmHg.

[1] = test system: guinea pig pulmonary artery rings; assay: Relaxation of preconstricted guinea pig pulmonary artery rings
[2] = test system: human internal mammary artery; assay: ACh-induced relaxation of human internal mammary artery; settings: for effect on ACh-induced vasorelaxation: NE-preconstricted, FIG. 11
Text: (§1) FIG. 11 contains representative physiograph tracings which depict ACh-induced relaxation of NE-preconstricted rings prepared from rabbit aorta (upper panel) and human internal mammary artery (lower panel).

rabbit aortic rings = assay: ACh-induced relaxation of isolated rabbit aortic rings; settings: for effect on ACh-induced vasorelaxation: NE-preconstricted rabbit aorta, FIG. 11
Text: FIG. 9b compares concentration-response relationships for the same set of mono- and disubstituted arginine analogs as FIG. 9a, plus an additional dimethyl analog with the two methyl groups on different guanidino nitrogens. The test is for inhibition of ACh-induced vasorelaxation in isolated rabbit aortic rings. The points plotted represent means±S.E. of the maximum responses to ACh observed in the presence of the indicated concentrations of analogs (n=4).
Guinea pig pulmonary artery (GP PA), rat and rabbit aorta (Ao), and dog coronary (CA) and femoral artery (FA) were precontracted with NE (1 μM) and relaxed with a single concentration of ACh. Concentration of ACh: GP PA 1 μM, rat Ao […], rabbit Ao 0.3, dog CA […] and […] 0.1 μM. […] The concentrations of L-citrulline (L-cit), D-arginine (D-arg) and L-arginine (L-arg) were all 0.5 mM. Bars are mean values±SEM (n=4-6).
as §1

[3] = test system: nitroglycerin-treated dogs; assay: Nitroglycerin-induced hypotension in dogs (Example 4); format: in vivo, dog; settings: for Cardiac Output / Heart Rate / Systemic Arterial Pressure / Systemic Vascular Resistance: Table 1, Study 2: Nitroglycerin-treated (n = 3)
Experimental: Animals: Studies were carried out on 12 conditioned mongrel dogs (9 males and 3 females) weighing 22-32 kg (avg=25.3 kg). Animal care was in accordance with the recommendations of the American Association for Accreditation of Laboratory Animal Care, and met all standards prescribed by the Guide for the Care and Use of Laboratory Animals (Guide for the Care and Use of Laboratory Animals (1978) Dept. of Health, Education and Welfare, Washington, D.C. (Publ. No. 78-23). Animal protocols were approved by The University of Texas Animal Welfare Committee. The dogs were fasted overnight prior to the day of experimentation. They were anesthetized with sodium pentobarbital (25 mg/kg I.v.). Dogs were then endotracheally intubated and ventilated with a piston-driven respirator (Harvard instruments) using room air at a tidal volume of 20 ml/kg and at a rate of 10 to 12 breaths per minute, adjusted to achieve a normal arterial pH and pCO2 (Instrumentation Laboratories 1L13012 pH/Blood Gas Analyzer). Catheters were placed percutaneously into the femoral and pulmonary arteries; In the latter, a flow-directed thermal-dilation catheter was used (Abbott Critical Care Systems).
Physiologic measurements: Mean SAP and heart rate were continuously monitored (Parametron 7048 Monitoring System, Roche) and stored on a magnetic disk using an analog-to-digital converter (Scientific Solutions, Inc.). Cardiac output (CO) was determined as the mean of six measurements by thermal-dilution. Systemic vascular resistance was calculated as (SAP X80)/CO and expressed as […].
Protocol: After the blood pressure and heart rate stabilized, endotoxin (40 ug/kg, in 10 ml of phosphate-buffered saline (PBS), pH 7.4) was infused i.v. over 2 minutes. This dose of endotoxin typically induces severe and often lethal cardiovascular collapse in the dog. Blood pressure was monitored, and when either SAP fell below 60 mmHg or a stable nadir in systemic arterial pressure (SAP) was maintained for 10 minutes, L-NMA was administered (20 mg/kg in 5 ml of PBS i.v. over 1 min.). In most experiments, L-arginine (400 mg/kg in 20 mi PBS) was administered ten minutes later by i.v. infusion over 2 minutes. In control experiments, dogs without prior exposure to endotoxin received L-NMA alone. To simulate the hypotension observed in dogs receiving endotoxin, one group of dogs received a continuous i.v. infusion of nitroglycerin (2 mg/ml) at a rate adjusted to maintain the SAP at 60-70 mm Hg. Nitroglycerin-treated dogs then received L-NMA (20 mg/kg) and 20 minutes later L-arginine was administered […].
In an additional series of experiments, blood pressure was reduced to 65 mm Hg by continuous i.v. infusion of nitroglycerin, a hypotensive agent that forms NO by an L-arginine and NO synthetase-independent mechanism.

[4] = test system: mongrel dogs with TNF-induced hypotension; assay: TNF-induced hypotension in anesthetized dogs; format: in vivo, dog; settings: for effect of L-arginine on NMMA pressor effect (words): TNF- and NMMA-treated dogs
Experimental: Recombinant human TNF specific activity 2×10^7 units/mg, was from the Niposn Chemical Corporation, Tokyo, Japan. TNF was administered at a dose of 10 mcg/kg in a volume of 10 ml of phosphate buffered saline containing 2 mgs/ml of dog albumin. […] Arginine was obtained from Sigma Chemical Company, St. Louis, Mo.
Four conditioned mongrel dogs, 2 males and 2 females, weighing 28 to 30 kgs, were studied. Care of the animals were in accordance with the recommendation of the American Association for Accreditation of Laboratory Animals [DHEW(DHHS) publication no. (NIH) 78-23, revised, 1978]. On the day of the experiment, the dogs were fasted overnight. They were anesthetized with phenobarbital (10 mg/kg). They were then intubated orally with a #10 fr. endotracheal tube and ventilated with a Harvard pump ventilator at a rate of 12 breaths per minute and a tidal volume of 15 ml/kg. An arterial line was percutaneously placed in the femoral artery on the day of the experiment.
Mean (electronic) and phasic systemic arterial pressures (SAP) were continuously recorded on a Hewlett-Packard recording system (model 7758B) using strain gauge manometers (Hewlett-Packard model 1290A) which were connected to the arterial line. Heart rate (HR) was determined from an EKG tracing and continuously recorded on the Hewlett-Packard recording system. Oxyhemoglobin saturation (SaO2) was obtained using a pulse oximeter (BIOX 111, Boulder, Colo.). continuous time-series records of SAP, HR, and SaO2 were obtained using a Lab Master analog-to-digital convertor (16 channel, 12 bit, 30 kHz; Scientific Solutions, Inc.) sampling at 55 Hz and storing the 6 sec averages on a magnetic disk.

## N=C(N)NCCC[C@H](N)C(=O)O [L-arginine, reference compound]
Endotoxemic dogs; L-arginine 100 mg/kg
  effect of L-arginine after NMMA: fall precipitously below the pre-NMMA level
[1]; excess L-arginine
  effect on relaxation in the presence of NMMA: restored relaxation in the presence of NMMA
[2]
  effect on ACh-induced vasorelaxation: restores relaxation
Rabbit aortic rings
  effect on ACh-induced vasorelaxation: restores relaxation
[3]
  Cardiac Output: 5.15 ± 1.08 L/min
  Heart Rate: 148.7 ± 19.9 beats/min
  Systemic Arterial Pressure: 56.9 ± 13 mmHg
  Systemic Vascular Resistance: 1088.2 ± 491 dynes-sec/cm^5
[4]; FIG. 7a, after TNF and NMMA
  blood pressure after L-arginine: 37 mmHg
[4]
  effect of L-arginine on NMMA pressor effect (words): antagonized; also recorded: completely reversed; also recorded: rapid decrease of blood pressure
[4]; listed as arginine
  effect of L-arginine on NMMA pressor effect (words): reversed

## CNC(=N)NCCC[C@H](N)C(=O)O [NMMA, N^G -methyl-L-arginine]
Endotoxemic dogs; FIG. 24
  blood pressure with readministration of NMMA: maintained
Endotoxemic dogs; NMMA 5 mg/kg after ET 1 μg/kg
  increase in blood pressure by NMMA: 33±2.5 mmHg
  time to blood pressure increase: ≤ 1.5 min
Endotoxemic dogs; lethal shock, 100 μg/ml endotoxin, NMMA 20 mg/kg
  increase in blood pressure by NMMA: 65 mm
[1]; endothelium-dependent vasodilators
  effect on vasodilatation by ACh, LTD4 and HIST: blocks endothelium-dependent relaxation; also recorded: blocks the action of ACh, LTD4 and HIST
[1]; guinea pig pulmonary artery rings, 1 μM NE, ACh
  inhibition of EDRF/NO synthesis: served as inhibitors of EDRF/NO synthesis
[1]; guinea pig pulmonary artery, NMMA 100 μM
  inhibition of EDRF/NO in vascular preparation: arginine reversible inhibitor of EDRF/NO
[1]; sodium nitroprusside, endothelium-independent
  effect on vasodilatation by SNP: does not inhibit
[2]
  effect on ACh-induced vasorelaxation: attenuate ACh-induced vasorelaxation
[2]; human
  inhibition of EDRF/NO in vascular preparation: arginine reversible inhibitor of EDRF/NO
Rabbit aortic rings
  effect on ACh-induced vasorelaxation: attenuate ACh-induced vasorelaxation
Rabbit aortic rings; rabbit aorta, NMMA 100 μM
  inhibition of EDRF/NO in vascular preparation: arginine reversible inhibitor of EDRF/NO
[3]; L-NMA 20 mg/kg
  HR, CO or SVR after L-NMA: without significant alteration in HR, CO, or SVR
[3]
  Cardiac Output: 3.85 ± 0.8 L/min
  Heart Rate: 191.7 ± 35.0 beats/min
  Systemic Arterial Pressure: 81.8 ± 3.5 mmHg
  Systemic Vascular Resistance: 1851 ± 399 dynes-sec/cm^5
[3]; nitroglycerin infusion, L-NMA 20 mg/kg, n=3
  increase in blood pressure (SAP) by L-NMA: 17.1±5.0 mmHg
[4]; FIG. 7a, TNF-treated
  blood pressure after NMMA: 115 mm
  increase in blood pressure by NMMA: 79 mm
[4]; after TNF
  time to pressor effect: ≤ 2 min
[4]; compared with normotensive dogs
  pressor response in TNF-hypotensive vs normotensive dogs: much more dramatic in dogs with TNF-induced hypotension than in normotensive dogs
[4]; dogs, TNF 10 mcg/kg
  reversal of TNF-associated hypotension: blocked; also recorded: reverse the hypotension
